What was measured:
A-549 = test: SRB anti-proliferative assay; type: cell-based; settings: Homo sapiens, A549; A-549, SRB, mean ± SE of 3
Method: Staurosporine, a clinically used antitumor drug, was co-assayed as a reference agent for the experiment.
(§1) Examination of the cytotoxic activity for the target conjugates was carried out in accordance with the SRB colorimetric assay protocol, as described previously.
(§2) In vitro anti-proliferative activity assay
(§3) Cells at a concentration of 0.50 x
(§4) Sulfo-Rhodamine-B stain (SRB) assay.
(§5) cell to the wall of the plate.
(§6) wells were prepared for each individual dose).
(§7) Unbound dye was removed by four

MDA-MB-231 = test: SRB anti-proliferative assay; type: cell-based; settings: Homo sapiens; MDA-MB-231, SRB, mean ± SE of 3
Method: (§8) All the newly prepared target conjugates (7, 8a–c, 9 and 10a–e) were investigated for the prospective growth inhibitory actions against three different cancer cell lines viz.; A-549, MDA-MB-231, and HCT-116, using the sulforhodamine B colorimetric (SRB) assay. Staurosporine, a clinically used antitumor drug, was co-assayed as a reference agent for the experiment.
as §1, §2, §3, §4, §5, §6, §7

HCT-116 = test: SRB anti-proliferative assay; type: cell-based; settings: Homo sapiens; HCT-116, SRB, mean ± SE of 3
Method: as §8, §1, §2, §3, §4, §5, §6, §7

CDK5 = test system: CDK5; parameters: method as in PMID 11439342; settings: CDK5 ref 4; cited from earlier work
CDK1 = test system: CDK1; parameters: method as in PMID 11439342; settings: CDK1 ref 4; cited from earlier work
CDK2 = CDK2 (Homo sapiens, UniProt P24941); settings: CDK2 ref 4; cited from earlier work

| SMILES | IC50 (A-549) [µM] | IC50 (MDA-MB-231) [µM] | IC50 (HCT-116) [µM] | IC50 (CDK5) [nM] | IC50 (CDK1) [nM] | IC50 (CDK2) [nM] |
| --- | --- | --- | --- | --- | --- | --- |
| CCn1cc(C=NN=C2C(=O)Nc3ccc(Cl)cc32)c2ccccc21 [Compound 7] | 50 ± 3.37 | 27.6 ± 1.76 | 19.7 ± 1.28 |  |  |  |
| C=CCn1cc(C=NN=C2C(=O)Nc3ccc(F)cc32)c2ccccc21 [Compound 10b] | 59.9 ± 3.58 | 54 ± 4.17 | 36.3 ± 2.35 |  |  |  |
| O=C1Nc2ccccc2/C1=C1/Nc2ccccc2C1=NO [Indirubin-3′-oxime] |  |  |  | 250 | 180 | 500 |

The next lines start with results.

| IC50 (A-549) [µM] | IC50 (MDA-MB-231) [µM] | IC50 (HCT-116) [µM] | SMILES | IC50 (CDK5) [nM] | IC50 (CDK1) [nM] | IC50 (CDK2) [nM] |
| --- | --- | --- | --- | --- | --- | --- |
| 40.2 ± 1.88 | 51.8 ± 3.77 | 37.4 ± 2.06 | C=CCn1cc(/C=N/N=C2\C(=O)Nc3ccc(OC(F)(F)F)cc32)c2ccccc21 [Compound 10e] |  |  |  |
| 2.3 ± 0.17 | 4.5 ± 0.29 | 3.7 ± 0.24 | COc1cccc2c1C(=O)c1c(O)c3c(c(O)c1C2=O)C[C@@](O)(C(=O)CO)C[C@@H]3O[C@H]1C[C@H](N)[C@H](O)[C@H](C)O1 [Dox., doxorubicin, reference compound] |  |  |  |

— PMC7717600, “Novel [(N-alkyl-3-indolylmethylene)hydrazono]oxindoles arrest cell cycle and induce cell apoptosis by inhibiting CDK2 and Bcl-2: synthesis, biological evaluation and in silico studies” (Journal of Enzyme Inhibition and Medicinal Chemistry, 2020)
